# Assay results reported in patent publication US20120022099A1, “NOVEL POLYMORPHIC FORMS OF AN AZABICYCLO-TRIFLUOROMETHYL BENZAMIDE DERIVATIVE” (SANOFI, priority 2008, published 2012).
# Tests used:
# [1] = system: NMDA receptor; details: cited from earlier work
# [2] = molecular target: T1, GLYT-1 (Homo sapiens, UniProt P48067); details: in vitro; cited from earlier work
# T1 sequence (P48067 1-706): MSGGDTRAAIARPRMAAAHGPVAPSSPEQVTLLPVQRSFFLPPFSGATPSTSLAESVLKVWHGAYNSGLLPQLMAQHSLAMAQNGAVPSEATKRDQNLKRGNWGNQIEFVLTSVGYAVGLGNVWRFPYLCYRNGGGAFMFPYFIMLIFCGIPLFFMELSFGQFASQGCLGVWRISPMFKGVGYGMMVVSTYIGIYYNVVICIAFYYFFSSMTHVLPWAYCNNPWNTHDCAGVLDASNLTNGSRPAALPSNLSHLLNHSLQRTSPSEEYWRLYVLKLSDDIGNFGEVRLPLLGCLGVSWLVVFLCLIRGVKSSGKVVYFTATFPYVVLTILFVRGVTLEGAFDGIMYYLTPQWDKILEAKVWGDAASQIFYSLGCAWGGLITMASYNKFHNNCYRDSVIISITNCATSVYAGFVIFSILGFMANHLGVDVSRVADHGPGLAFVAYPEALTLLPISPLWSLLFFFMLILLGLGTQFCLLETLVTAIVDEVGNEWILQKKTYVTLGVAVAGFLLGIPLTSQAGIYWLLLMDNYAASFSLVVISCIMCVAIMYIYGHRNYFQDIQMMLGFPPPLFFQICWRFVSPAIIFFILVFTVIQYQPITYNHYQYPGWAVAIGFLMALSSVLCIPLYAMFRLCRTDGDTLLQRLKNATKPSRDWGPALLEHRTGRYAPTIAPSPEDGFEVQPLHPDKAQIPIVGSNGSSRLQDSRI
# [3] = system: c-Fos immunoreactivity; details: in vivo; cited from earlier work
# [4] = system: DBA/2J mice; details: strain with low basal pre-pulse inhibition; cited from earlier work
# [5] = Stability of the solid form, conversion between polymorphs; format: physicochemical; details: for stability of the polymorphic form: hydrochloride
# [6] = Solubility in water
# [7] = system: hippocampal dentate gyrus; details: induced by high-frequency electrical stimulation of the afferent perforant pathway; cited from earlier work
# [8] = Thermal decomposition on drying by heating; format: physicochemical; details: drying through heating to release residual solvents
smiles,measurement,setting,value
"CN(CCC(Oc1ccc(-c2ccccc2)cc1)c1ccc(F)cc1)CC(=O)O (single isomer, unassigned; (+)) [(+)-NFPS, (+)N-[3-(4′-fluorophenyl)-3-(4′-phenylphenoxy)-propyl]sarcosine]",NMDA-induced [3H]GABA release,[1],significantly stimulated
same,activity relative to the racemic compound,[2],greater than 10 fold
same,pattern of c-Fos immunoreactivity,[3],comparable with the atypical anti-psychotic clozapine
same,pre-pulse inhibition of the acoustic startle response,[4],enhanced
"Cl.O=C(N[C@@H](c1ccccc1)[C@@H]1CC2CCN1CC2)c1c(Cl)ccc(C(F)(F)F)c1Cl [Form B, N—[(S)-2(S)-1-azabicyclo[2.2.2]oct-2-yl(phenyl)methyl]-2,6-dichloro-3-(trifluoromethyl)benzamide hydrochloride]",conversion to polymorph A,[5]; aqueous system,readily converts to the desired polymorph A
same,stability of the polymorphic form,[5],lower stability than Form A
same,solubility,[6],> 200 mg/mL
same,solubility in water,[6]; 45° C.,highly soluble in water
"CN(CCC(Oc1ccc(-c2ccccc2)cc1)c1ccc(F)cc1)CC(=O)O (racemic) [(+/−)-NFPS, N-[3-(4′-fluorophenyl)-3-(4′-phenylphenoxy)propyl]sarcosine]",long-term potentiation,[7],significantly enhanced
"Cl.O=C(N[C@@H](c1ccccc1)[C@@H]1CC2CCN1CC2)c1c(Cl)ccc(C(F)(F)F)c1Cl [Form A, N—[(S)-2(S)-1-azabicyclo[2.2.2]oct-2-yl(phenyl)methyl]-2,6-dichloro-3-(trifluoromethyl)benzamide hydrochloride]",stability of the polymorphic form,[5]; listed as polymorph A,highly stable
same,temperature above which thermal decomposition of the compound occurs,[8],above 220 °C
